The source of these data is patent US7799775B2, “Pyrimidine derivatives” (ASKA Pharmaceutical Co., Ltd., priority 2004, dated 2010).

Each structure is given as a SMILES string.

Experiment [1] concerns rats under restraint stress. In words: Measurement of defecation acceleration in rats under restraint stress. Format: in vivo, rat. Conditions: 1 hour restraint stress, group average (Normal 1.7, Control 6.8). On the procedure: (5) Measurement of Defecation Acceleration in Rats under Restraint Stress […] Feed and drinking water were left for their free ingestion until the morning of the day on which the test was given. On the day of the experiment, test compounds were orally administered and positive control solution (the used compounds were dissolved in 1N-hydrochloric acid and diluted with a suitable amount of saline) was administered intraperitoneally. Five (5) minutes thereafter, under lightly anesthetized condition, the rats were placed under restraint stress, with their upper half of the bodies including the front feet immobilized with gum tape. The restraint stress loading was conducted for an hour, and the number of excrements discharged during that period was counted. […] Those compounds which were used as the positive control chemicals used in the acceleration of defecation in rats under restraint stress are identified with the following structures.

The target of another experiment is T1, human 5-HT1A receptor (Homo sapiens, UniProt P08908).
T1 construct: purchased Packard Bioscience; host or cells: CHO cells (membrane preparation)
T1 sequence (P08908 1-422): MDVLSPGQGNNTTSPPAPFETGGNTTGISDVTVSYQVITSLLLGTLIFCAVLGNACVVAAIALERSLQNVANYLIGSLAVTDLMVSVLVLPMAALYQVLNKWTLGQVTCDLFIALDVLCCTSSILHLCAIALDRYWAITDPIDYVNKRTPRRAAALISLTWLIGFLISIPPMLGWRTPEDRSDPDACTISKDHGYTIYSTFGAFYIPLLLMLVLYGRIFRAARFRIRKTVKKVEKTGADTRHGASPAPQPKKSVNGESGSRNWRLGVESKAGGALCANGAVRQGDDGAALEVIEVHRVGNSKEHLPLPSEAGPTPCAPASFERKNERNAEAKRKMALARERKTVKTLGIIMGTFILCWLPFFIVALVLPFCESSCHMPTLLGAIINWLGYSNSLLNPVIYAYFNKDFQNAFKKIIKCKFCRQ
In words: Affinity measurement of the compounds to human 5-HT1A receptor (in vitro), [3H]8-OH-DPAT binding. The conditions noted are these: test compound 100 nmols/L; [3H]8-OH-DPAT 0.25 nmols/L; CHO cell membrane expressing human 5-HT1A receptor; read-out: Percent Inhibition (%) on Each Receptor's Binding at 10^−7M, 5-HT1A. The procedure, abridged: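 Membranes from CHO cells expressing human 5-HT1A were incubated 60 min at 27 °C with 0.25 nmol/L [3H]8-OH-DPAT and compound in Tris/MgSO4/EDTA/ascorbate buffer, pH 7.4. Bound radioactivity was collected on PEI-soaked GF/C filters and counted; percent inhibition was corrected for non-specific binding defined with 10 μmol/L 8-OH-DPAT.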

For the next experiment, the target named is T2, 5-HT1A receptor (Rattus norvegicus, UniProt P19327).
T2 construct: from tissue; host or cells: whole animal (SD male rats), behavioural read-out
T2 sequence (P19327 1-422): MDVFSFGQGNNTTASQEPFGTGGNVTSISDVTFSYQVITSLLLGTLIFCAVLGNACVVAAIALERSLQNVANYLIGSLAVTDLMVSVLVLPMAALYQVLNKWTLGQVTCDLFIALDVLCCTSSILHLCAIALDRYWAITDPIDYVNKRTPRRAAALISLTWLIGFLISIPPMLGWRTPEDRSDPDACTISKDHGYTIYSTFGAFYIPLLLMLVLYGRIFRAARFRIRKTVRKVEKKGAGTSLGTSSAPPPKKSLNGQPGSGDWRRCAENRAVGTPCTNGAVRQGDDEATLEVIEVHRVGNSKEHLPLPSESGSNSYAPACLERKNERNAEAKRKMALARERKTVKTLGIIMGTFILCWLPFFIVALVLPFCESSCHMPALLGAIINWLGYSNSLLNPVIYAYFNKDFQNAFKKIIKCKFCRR
In words: Measurement of 5-HT1A receptor agonistic action on rats (in vivo): lower lip retraction and flat body posture. The conditions noted are these: SD male rats, 10 mg/kg intraperitoneal; maximum of group evaluation points, 4 grades 0-3, observed 5-30 min after administration. On the procedure: (3) Measurement of 5-HT1A Receptor Agonistic Action on Rats (in Vivo):
Seven weeks old SD male rats were divided into 4-5 rats per group which were accustomized to the experimental environments twice. A week after the second accustomization, the rats were put into a transparent plastic case, and 10 mg/kg of a test compound (as dissolved in 1N-hydrochloric acid and diluted with suitable amount of saline) was intraperitoneally administered thereto. Immediately before the administration and 5, 10, 20 and 30 minutes after the administration, behaviors of the rats were observed as to lower lip retraction (LLP) and flat body posture (FBP). The results were evaluated in 4 grades (0: no reaction, 1: feeble reaction, 2: medium reaction, 3: maximum reaction).

As for `Nn1c(CCCCN2CCN(c3ccc4ccccc4n3)CC2)nc2c(c1=O)CCCC2` [Example 4-1, 3-amino-2-[4-(4-quinolin-2-ylpiperazin-1-yl)butyl]-5,6,7,8-tetrahydro-3H-quinazolin-4-one], the Number of excrements in experiment [1] (0.3 mg/kg intraperitoneal administration) came out at 5.3; in experiment [1] (1 mg/kg intraperitoneal administration), 4.3; in experiment [1] (3 mg/kg intraperitoneal administration) it was 2.1. Besides, on human 5-HT1A receptor, the inhibition at 0.1 µM came to 101%. For the same compound, at 5-HT1A receptor, the “5-HT1A Receptor Agonistic Action on Rats, FBP” value is listed as 1.8. For the same compound, the “5-HT1A Receptor Agonistic Action on Rats, LLR” value on 5-HT1A receptor worked out at 1.5.

With `Cn1c(CCCCN2CCN(c3ccc4ccccc4n3)CC2)nc2c(c1=O)CCCC2` [Example 7-1, 3-methyl-2-[4-(4-quinolin-2-ylpiperazin-1-yl)butyl]-5,6,7,8-tetrahydro-3H-quinazolin-4-one], the Number of excrements was 5.8 in experiment [1] (1 mg/kg oral administration), 3.8 in experiment [1] (3 mg/kg oral administration) and 2.3 in experiment [1] (10 mg/kg oral administration). Besides, the inhibition at 0.1 µM at human 5-HT1A receptor worked out at 97.5%. Also, at 5-HT1A receptor, the “5-HT1A Receptor Agonistic Action on Rats, FBP” value stood at 1.8. For the same compound, the “5-HT1A Receptor Agonistic Action on Rats, LLR” value on 5-HT1A receptor is 2.2.

On to `Cn1c(CCCCN2CCN(c3ccc4ccccc4n3)CC2)nc2ccccc2c1=O` [Example 7-20, 3-methyl-2-[4-(4-quinolin-2-ylpiperazin-1-yl)butyl]-3H-quinazolin-4-one], for which the Number of excrements in experiment [1] (1 mg/kg oral administration) was found to be 5.4; in experiment [1] (3 mg/kg oral administration), 3.6; in experiment [1] (10 mg/kg oral administration), 2.4. For the same compound, at human 5-HT1A receptor, the inhibition at 0.1 µM is 101%. Besides, the “5-HT1A Receptor Agonistic Action on Rats, FBP” value at 5-HT1A receptor was 1.8. Moreover, the “5-HT1A Receptor Agonistic Action on Rats, LLR” value on 5-HT1A receptor stood at 1.6.
